Reference: patent publication US8501446B2 (Vertex Pharmaceuticals Incorporated, priority 2004, dated 2013)

How the values were obtained:
[1] = target: T1, full length Aurora-A (AA 1-403) (Homo sapiens, UniProt O14965); test: Aurora-A inhibition assay, standard coupled enzyme system; type: biochemical; settings: average Ki if more than one value determined
T1 construct: full length Aurora-A (AA 1-403)
T1 sequence (O14965 1-403): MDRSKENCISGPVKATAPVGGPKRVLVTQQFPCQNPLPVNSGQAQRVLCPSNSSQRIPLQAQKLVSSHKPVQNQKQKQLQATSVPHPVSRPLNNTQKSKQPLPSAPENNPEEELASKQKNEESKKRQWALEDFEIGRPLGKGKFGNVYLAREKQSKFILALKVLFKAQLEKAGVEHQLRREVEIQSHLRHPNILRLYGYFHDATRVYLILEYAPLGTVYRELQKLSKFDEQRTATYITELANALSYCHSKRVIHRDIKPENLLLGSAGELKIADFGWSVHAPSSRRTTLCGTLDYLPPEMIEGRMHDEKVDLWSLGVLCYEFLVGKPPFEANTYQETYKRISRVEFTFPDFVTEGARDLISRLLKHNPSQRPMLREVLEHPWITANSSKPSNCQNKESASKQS
Description: Compounds were screened for their ability to inhibit full length Aurora-A (AA 1-403) activity using a standard coupled enzyme system (Fox et al., Protein Sci. 7, pp. 2249 (1998)). Reactions were carried out in a solution containing 100 mM HEPES (pH 7.5), 10 mM MgCl2, 25 mM NaCl, 300 μM NADH, 1 mM DTT and 3% DMSO. Final substrate concentrations in the assay were 200 μM ATP (Sigma Chemicals, St Louis, Mo.) and 800 μM peptide (LRRASLG, American Peptide, Sunnyvale, Calif.). Reactions were carried out at 30° C. and 35 nM Aurora-A. Final concentrations of the components of the coupled enzyme system were 2.5 mM phosphoenolpyruvate, 200 μM NADH, 60 μg/ml pyruvate kinase and 20 μg/ml lactate dehydrogenase.
An assay stock buffer solution was prepared containing all of the reagents listed above with the exception of ATP and the test compound of interest. The assay stock buffer solution (60 μl) was incubated in a 96 well plate with 2 μl of the test compound of interest at final concentrations spanning 0.002 μM to 30 μM at 30° C. for 10 min. Typically, a 12 point titration was conducted by preparing serial dilutions (from 1 mM compound stocks) with DMSO of the test compounds in daughter plates. The reaction was initiated by the addition of 5 μl of ATP (final concentration 200 μM). Rates of reaction were obtained using a Molecular Devices Spectramax plate reader (Sunnyvale, Calif.) over 10 min at 30° C. The Ki values were determined from the rate data as a function of inhibitor concentration using computerized nonlinear regression (Prism 3.0, Graphpad Software, San Diego, Calif.). Aurora-C activity was screened in a similar manner using Aurora-C protein. Aurora-B activity was screened using a radioactive assay, such as described in Examples 1 and 2, but using Aurora-B protein.

ROCK I (AA 6-553) = target: T2, ROCK I (AA 6-553) (Homo sapiens, UniProt Q13464); test: ROCK inhibition assay, standard coupled enzyme system ("Enzyme"); type: biochemical; settings: enzyme-linked assay
T2 construct: ROCK I (AA 6-553)
Description: Compounds were screened for their ability to inhibit ROCK I (AA 6-553) activity using a standard coupled enzyme system (Fox et al. (1998) Protein Sci. 7, 2249). Reactions were carried out in a solution containing 100 mM HEPES (pH 7.5), 10 mM MgCl2, 25 mM NaCl, 2 mM DTT and 1.5% DMSO. Final substrate concentrations in the assay were 45 μM ATP (Sigma Chemicals, St Louis, Mo.) and 200 μM peptide (American Peptide, Sunnyvale, Calif.). Reactions were carried out at 30° C. and 45 nM ROCK L. Final concentrations of the components of the coupled enzyme system were 2.5 mM phosphoenolpyruvate, 350 μM NADH, 30 μg/ml pyruvate kinase and 10 μg/ml lactate dehydrogenase.

T2 sequence (Q13464 6-553, species assumed): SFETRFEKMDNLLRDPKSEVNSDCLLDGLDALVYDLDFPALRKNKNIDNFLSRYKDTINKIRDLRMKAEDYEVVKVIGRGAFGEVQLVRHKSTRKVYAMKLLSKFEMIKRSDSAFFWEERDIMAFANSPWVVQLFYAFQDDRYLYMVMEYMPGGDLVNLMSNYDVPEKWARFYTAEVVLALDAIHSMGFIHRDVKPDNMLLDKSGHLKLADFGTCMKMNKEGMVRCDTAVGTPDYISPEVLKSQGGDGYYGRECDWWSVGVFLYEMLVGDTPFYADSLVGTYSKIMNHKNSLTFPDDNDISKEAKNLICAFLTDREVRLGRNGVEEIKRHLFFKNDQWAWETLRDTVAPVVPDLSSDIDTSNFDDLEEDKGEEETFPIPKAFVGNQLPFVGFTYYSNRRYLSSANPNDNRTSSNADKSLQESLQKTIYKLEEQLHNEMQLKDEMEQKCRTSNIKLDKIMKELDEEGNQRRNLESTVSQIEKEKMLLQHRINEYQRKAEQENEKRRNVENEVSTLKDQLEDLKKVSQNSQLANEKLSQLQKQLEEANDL

Row | Ki [1] | Ki (ROCK I (AA 6-553)) | Compound
1 | 500 to 5000 nM | – | C[Si](C)(C)c1[nH]c2ncc(-c3ccccc3)cc2c1-c1ccccc1 [Compound 210]
2 | 500 to 5000 nM | 500 to 5000 nM | CCCCNC(=O)c1cccc(-c2c[nH]c3ncc(-c4ccccc4)cc23)c1 [Compound 220]
3 | < 500 nM | < 500 nM | CS(=O)(=O)c1cccc(-c2c[nH]c3ncc(-c4ccc(F)cc4)cc23)c1 [Compound 221]
4 | < 500 nM | < 500 nM | COc1ccc(-c2c[nH]c3ncc(-c4ccc(F)cc4)cc23)cc1OC [Compound 222]
5 | 500 to 5000 nM | 500 to 5000 nM | Fc1ccc(-c2cnc3[nH]cc(-c4ccc(F)cc4)c3c2)cc1 [Compound 223]
6 | < 500 nM | < 500 nM | COc1ccc(-c2c[nH]c3ncc(-c4ccc(F)cc4)cc23)cc1 [Compound 224]
7 | 500 to 5000 nM | 500 to 5000 nM | O=C(c1cccc(-c2c[nH]c3ncc(-c4cc(Cl)cc(Cl)c4)cc23)c1)N1CCOCC1 [Compound 225]
8 | 500 to 5000 nM | – | CCNC(=O)c1cccc(-c2c[nH]c3ncc(-c4cc(Cl)cc(Cl)c4)cc23)c1 [Compound 226]
9 | < 500 nM | < 500 nM | NC(=O)c1ccc(-c2c[nH]c3ncc(-c4ccc(F)cc4)cc23)cc1 [Compound 227]
10 | < 500 nM | < 500 nM | NC(=O)c1cccc(-c2c[nH]c3ncc(-c4ccc(F)cc4)cc23)c1 [Compound 228]
11 | < 500 nM | 500 to 5000 nM | O=Cc1ccc(-c2c[nH]c3ncc(-c4ccccc4)cc23)cc1 [Compound 229]
12 | 500 to 5000 nM | 500 to 5000 nM | CC(=O)NCc1ccc(-c2c[nH]c3ncc(-c4ccccc4)cc23)cc1 [Compound 230]
13 | < 500 nM | < 500 nM | CC(=O)c1ccc(-c2c[nH]c3ncc(-c4ccccc4)cc23)cc1 [Compound 231]
14 | < 500 nM | 500 to 5000 nM | Nc1ccc(-c2c[nH]c3ncc(-c4ccccc4)cc23)cc1 [Compound 232]
15 | – | 500 to 5000 nM | CNS(=O)(=O)c1ccc(-c2c[nH]c3ncc(-c4ccccc4)cc23)cc1 [Compound 233]
16 | < 500 nM | – | CS(=O)(=O)Nc1ccc(-c2c[nH]c3ncc(-c4ccccc4)cc23)cc1 [Compound 234]
17 | < 500 nM | < 500 nM | NC(=O)c1ccc(-c2c[nH]c3ncc(-c4ccoc4)cc23)cc1 [Compound 235]
18 | < 500 nM | – | NC(=O)c1ccc(-c2c[nH]c3ncc(-c4ccsc4)cc23)cc1 [Compound 236]
19 | < 500 nM | < 500 nM | COc1cccc(-c2cnc3[nH]cc(-c4ccc(C(N)=O)cc4)c3c2)c1 [Compound 239]
20 | < 500 nM | 500 to 5000 nM | Clc1cnc2[nH]cc(-c3cccc(Br)n3)c2c1 [Compound 240]
21 | 500 to 5000 nM | – | Clc1cnc2[nH]cc(-c3cccc(N4CCCC4)n3)c2c1 [Compound 241]

Row | Ki [1] | Ki (ROCK I (AA 6-553)) | Compound
22 | < 500 nM | 500 to 5000 nM | Clc1cnc2[nH]cc(-c3cccc(Nc4ccccc4)n3)c2c1 [Compound 243]
23 | 500 to 5000 nM | 500 to 5000 nM | Clc1ccc(CNc2cccc(-c3c[nH]c4ncc(Cl)cc34)n2)c(Cl)c1 [Compound 244]
24 | < 500 nM | – | CC(C)(C)OC(=O)N(Cc1ccc(S(C)(=O)=O)cc1)c1cccc(-c2c[nH]c3ncc(Cl)cc23)n1 [Compound 245]
25 | 500 to 5000 nM | 500 to 5000 nM | Nc1cccc(-c2c[nH]c3ncc(Cl)cc23)n1 [Compound 246]
26 | < 500 nM | 500 to 5000 nM | CS(=O)(=O)c1ccc(CNc2cccc(-c3c[nH]c4ncc(Cl)cc34)n2)cc1 [Compound 247]
27 | < 500 nM | 500 to 5000 nM | Clc1cnc2[nH]cc(-c3cccc(Sc4ccccc4Cl)n3)c2c1 [Compound 248]
28 | < 500 nM | 500 to 5000 nM | O=C(Nc1cccc(-c2c[nH]c3ncc(Cl)cc23)n1)c1ccccc1 [Compound 249]
29 | < 500 nM | 500 to 5000 nM | CC(C)(C)OC(=O)Nc1cccc(-c2c[nH]c3ncc(Cl)cc23)n1 [Compound 250]
30 | 500 to 5000 nM | – | Nc1cccc(-c2c[nH]c3ncc(-c4ccccc4)cc23)n1 [Compound 268]
31 | < 500 nM | – | c1ccc(CNc2cccc(-c3c[nH]c4ncc(-c5ccccc5)cc34)n2)cc1 [Compound 269]
32 | 500 to 5000 nM | – | CNc1cccc(-c2c[nH]c3ncccc23)n1 [Compound 272]
33 | 500 to 5000 nM | – | CC(C)C(=O)Nc1cccc(-c2c[nH]c3ncc(Cl)cc23)n1 [Compound 279]
34 | < 500 nM | – | O=C(Cc1ccccc1)Nc1cccc(-c2c[nH]c3ncc(Cl)cc23)n1 [Compound 280]
35 | < 500 nM | – | O=C(Nc1cccc(-c2c[nH]c3ncc(Cl)cc23)n1)c1ccccc1Cl [Compound 281]
36 | < 500 nM | – | O=C(Nc1cccc(-c2c[nH]c3ncc(Cl)cc23)n1)c1cccc(Cl)c1 [Compound 282]
37 | 500 to 5000 nM | – | CC(=O)Nc1cccc(-c2c[nH]c3ncc(Cl)cc23)n1 [Compound 283]
38 | < 500 nM | – | c1ccc(-c2cnc3[nH]cc(-c4cccc(NC5CCCCC5)n4)c3c2)cc1 [Compound 287]
39 | < 500 nM | – | O=C(Nc1cccc(-c2c[nH]c3ncc(Cl)cc23)n1)C1CCCCC1 [Compound 288]
40 | – | < 500 nM | NC(=O)c1ccc(-c2c[nH]c3ncc(CCc4ccccc4)cc23)cc1 [Compound 303]
41 | – | 500 to 5000 nM | NC(=O)c1ccc(-c2c[nH]c3ncc(Sc4ccccc4)cc23)cc1 [Compound 304]
42 | 500 to 5000 nM | – | Fc1cnc(-c2c[nH]c3ncc(Cl)cc23)nc1OCc1ccc(Cl)cc1 [Compound 314]

Row | Ki [1] | Ki (ROCK I (AA 6-553)) | Compound
43 | 500 to 5000 nM | – | Clc1cnc2[nH]cc(-c3ncccn3)c2c1 [Compound 319]
44 | < 500 nM | – | C[C@H](Nc1nc(-c2c[nH]c3ncc(Cl)cc23)ncc1F)c1cccc(OCCN(C)C)c1 [Compound 320]
45 | < 500 nM | – | Nc1nc(-c2c[nH]c3ncc(Cl)cc23)ncc1F [Compound 332]
46 | < 500 nM | – | C[C@H](Nc1nc(-c2c[nH]c3ncc(CO)cc23)ncc1F)c1ccc(F)cc1 [Compound 334]
47 | 500 to 5000 nM | – | C[C@H](Nc1nc(-c2c[nH]c3ncc(N)cc23)ncc1F)c1ccc(F)cc1 [Compound 343]
48 | 500 to 5000 nM | – | C[C@H](Nc1nc(-c2c[nH]c3ncc(C(=O)N(C)C)cc23)ncc1F)c1ccc(F)cc1 [Compound 346]
49 | 500 to 5000 nM | – | C[C@H](Nc1nc(-c2c[nH]c3ncc(C(=O)O)cc23)ncc1F)c1ccc(F)cc1 [Compound 350]
50 | < 500 nM | – | CN1CCC(Nc2nc(-c3c[nH]c4ncc(Cl)cc34)ncc2F)C1 (centres unmarked) [Compound 352]
51 | – | 500 to 5000 nM | N#Cc1ccnc(-c2c[nH]c3ncc(Cl)cc23)c1 [Compound 353]
52 | 500 to 5000 nM | – | CCOC(=O)Nc1cnc2[nH]cc(-c3ncc(F)c(N[C@@H](C)c4ccc(F)cc4)n3)c2c1 [Compound 358]
53 | 500 to 5000 nM | – | NCCC[C@H](Nc1nc(-c2c[nH]c3ncc(Cl)cc23)ncc1F)C(=O)O [Compound 403]
54 | < 500 nM | – | OCc1cc(-c2c[nH]c3ncc(Cl)cc23)nc(N2CCNCC2)c1 [Compound 405]
55 | < 500 nM | – | C#Cc1cc(-c2c[nH]c3ncc(Cl)cc23)nc(N2CCNCC2)c1 [Compound 412]
56 | 500 to 5000 nM | – | CC(C)CCNC(=O)[C@H](C)Nc1nc(-c2c[nH]c3ncc(Cl)cc23)ncc1F [Compound 464]
57 | < 500 nM | – | CC[C@H](C)NC(=O)[C@H](C)Nc1nc(-c2c[nH]c3ncc(Cl)cc23)ncc1F [Compound 465]
58 | 500 to 5000 nM | – | C[C@H](Nc1nc(-c2c[nH]c3ncc(Cl)cc23)ncc1F)C(=O)NCCC(=O)O [Compound 466]
59 | < 500 nM | – | CNC(=O)CCNC(=O)[C@H](C)Nc1nc(-c2c[nH]c3ncc(Cl)cc23)ncc1F [Compound 467]
60 | < 500 nM | – | CC(C)NC(=O)CCNC(=O)[C@H](C)Nc1nc(-c2c[nH]c3ncc(Cl)cc23)ncc1F [Compound 468]
61 | < 500 nM | – | CC(C)NS(=O)(=O)CCNC(=O)[C@H](C)Nc1nc(-c2c[nH]c3ncc(Cl)cc23)ncc1F [Compound 469]
